The values that follow come from patent US20210186930A1, “Methods of Treating Renal Disease Associated With Chronic Kidney Disease Such as Alport Syndrome” (UNIVERSITY OF MIAMI, priority 2018, published 2021).

“Also recorded” adds a separate entry of the source.

One data set relates to Col4a3 knockout mice. Kind of data set: Renal function and body weight in Col4a3 knockout mice treated with ezetimibe (FIG. 3). Type of data set: in vivo, mouse. The protocol:
Mouse models: Mice in which exon 5 of a3 chain of collagen type IV is deleted (Col4a3 KO) were obtained from the Jackson Laboratory (#002908, 129-Col4a3tm1Dec/J). Col4a3 heterozygous littermates were bred to generate Col4a3 KO mice. Four groups of mice with n=3-10 per group were studied. The four groups consisted of: 1) wildtype controls+vehicle, 2) wildtype controls+ezetimibe, 3) Col4a3 KO+vehicle, 4) Col4a3 KO+ezetimibe. ezetimibe was administered by oral gavage daily starting at 4 weeks of age at a concentration of 5 mg/kg body weight. […] Mice were sacrificed at 8 weeks of age when progression to end-stage renal failure had occurred.
Albumin/creatinine ratio: All albuminuria values are expressed as μg albumin/mg creatinine. Albumin/creatinine determined by ELISA (Bethyl Laboratories) for albumin detection and a biochemical assay based on the Jaffe method for creatinine detection (Stanbio) as previously described.
Serology: Immediately prior to sacrifice, a blood sample was collected for the determination of BUN and lipid panel analysis in the comparative laboratory core facility of the University of Miami. Serum creatinine was determined by tandem mass spectrometry (UAB-UCSD O'Brien Core Center, University of Alabama).

Data set [1] relates to Col4a3−/− mice. The experiment in a line: Renal function in Col4a3-/- mice treated with ezetimibe, ramipril or both (Example 1, FIG. 5). Type of data set: in vivo, mouse. The following applies: vs untreated Col4a3−/−. The source says: Albumin/creatinine ratio: All albuminuria values are expressed as μg albumin/mg creatinine. Albumin/creatinine determined by ELISA (Bethyl Laboratories) for albumin detection and a biochemical assay based on the Jaffe method for creatinine detection (Stanbio) as previously described. Serology: Immediately prior to sacrifice, a blood sample was collected for the determination of BUN and lipid panel analysis in the comparative laboratory core facility of the University of Miami. Serum creatinine was determined by tandem mass spectrometry (UAB-UCSD O'Brien Core Center, University of Alabama). The following experiment was performed to investigate which treatment, ezetimibe (EZ), ramipril (Ramp) or the combination of both drugs (EZ+Ramp), would best preserve renal function in Col4a3 knockout mice, all drugs were administered to 4-week-old Col4a3−/− mice for 4 weeks as follows: ezetimibe (Ez) was orally administered at a concentration of 5 mg/kg BW, ramipril was added to the drinking water at a concentration that would lead to a daily ramipril uptake of 10 mg/kg BW. All mice were sacrificed at 8 weeks of age. The following four groups of mice were analyzed: Col4a3^+/+, Col4a3^−/−+Ez, Col4a3^−/−+Ramp and Col4a3^−/−+Ez+Ramp.

Data set [2] relates to Col4a3−/− mice. The experiment in a line: Mesangial expansion (PAS) and renal fibrosis (Picrosirius Red) in Col4a3-/- mice (Example 3, FIG. 6). Type of data set: in vivo, mouse. The settings on record: treated vs untreated Col4a3−/− mice; ezetimibe 5 mg/kg, ramipril 10 mg/kg, 4 weeks. The protocol:
Assessment of mesangial expansion: Periodic acid-Schiff (PAS) staining of 4 μm-thick tissue sections was performed using a standard protocol. Twenty glomeruli per section were analyzed for mesangial expansion by semi quantitative analysis (scale 0-4) performed by two blinded independent investigators.
Picrosirius red staining: Paraffin-embedded sections (4 μm thick) were deparaffinized with xylene and a graded alcohol series. Sections were rinsed for 5 min in distilled water, stained for 1 hour with picrosirius red in saturated aqueous picric acid, examined under a light microscope and photomicrographs were taken. Histological images were visualized using a light microscope (Olympus BX 41, Tokyo, Japan) at 40× magnification and analyzed using Image J software.
The following experiment was performed to investigate which treatment, ezetimibe (EZ), ramipril (Ramp) or the combination of both drugs (EZ+Ramp), would best preserve renal function in Col4a3 knockout mice, all drugs were administered to 4-week-old Col4a3−/− mice for 4 weeks as follows: ezetimibe (Ez) was orally administered at a concentration of 5 mg/kg BW, ramipril was added to the drinking water at a concentration that would lead to a daily ramipril uptake of 10 mg/kg BW. All mice were sacrificed at 8 weeks of age. The following four groups of mice were analyzed: Col4a3^+/+, Col4a3^−/−+Ez, Col4a3^−/−+Ramp and Col4a3^−/−+Ez+Ramp.
PAS staining was performed to detect and quantify mesangial expansion, Picrossirius Red staining to detect and quantify renal fibrosis in treated compared to untreated Col4a3^−/− mice. […] Representative images for PAS staining are shown in FIG. 6A and of Picrosirius Red staining to detect fibrosis in […]. Bar graph quantifications for both are shown in FIGS. 6C and 6D, respectively.

The conditions of data set [3]: cited from earlier work.
For data set [4] the following is noted: ambient temperature; cited from earlier work.
[5] abbreviates: ezetimibe 5 mg/kg oral gavage daily, sacrifice at 8 weeks.
Where [6] appears, read: Col4a3−/− mice treated 4 weeks, ezetimibe 5 mg/kg, ramipril 10 mg/kg.

Consider `O=C1[C@H](CC[C@H](O)c2ccc(F)cc2)[C@@H](c2ccc(O)cc2)N1c1ccc(F)cc1` [ezetimibe], for which the body weight entry in the data set with Col4a3 knockout mice (ezetimibe 5 mg/kg oral gavage daily) is recorded as “prevents body weight loss”. In addition, the albumin/creatinine ratio result with Col4a3 knockout mice (ezetimibe 5 mg/kg oral gavage daily from 4 weeks of age, vs untreated Col4a3 knockout mice) is on record as “significant reduction in the albumin/creatinine ratio”. Also, in the data set on Col4a3 knockout mice (setting [5]), the “serum BUN levels” value is recorded as “prevents increases in serum BUN levels” and the serum creatinine levels entry is “significantly reduces serum creatinine levels”. The “albumin/creatinine ratio (ACR)” value in the data set with Col4a3−/− mice [1] (4-week-old Col4a3−/− mice treated 4 weeks, ezetimibe 5 mg/kg BW oral, ramipril 10 mg/kg BW in drinking water) is “significant reduction in the albumin/creatinine ratio; also recorded: significant decrease in the albumin/creatinine ratio”. Moreover, in the data set with Col4a3−/− mice [1] (setting [6]), the “serum BUN levels” value is listed as “significant reduction in the serum BUN levels” and the serum creatinine levels entry is recorded as “significant reduction in the serum creatinine levels”. In the data set with Col4a3−/− mice [2], the “mesangial expansion (PAS staining, score)” value is reported as “significant reduction; also recorded: significantly reduced mesangial expansion” and the “renal fibrosis (Picrosirius Red staining)” value was “significant reduction; also recorded: significantly reduced”. In addition, in data set [3], the “solubility in ethanol, methanol, and acetone” value is given as “freely to very soluble”; the solubility in water entry is recorded as “practically insoluble”. The stability result in data set [4] is recorded as “stable”.
